Laboratory results published in US4868190A, “N-pyridinyl-9H-carbazol-9-amines” (Hoechst-Roussel Pharmaceuticals, Inc., priority 1988, dated 1989).
Where two headings read alike, the source gives them in different places.

What was measured:
[1] = tested on: tetrabenazine-induced ptosis; experiment: Prevention of Tetrabenazine-Induced Ptosis in Mice; format: in vivo, mice (male); conditions: Mus musculus, po, read-out: Antidepressant activity ED50
From the text: The test method and results are described below.
Tetrabenazine (TBZ) induces behavioral depression with concomitant ptosis in mice similar to reserpine. Antidepressant compounds, both monoamineoxidase inhibitors and tricyclics, are known to prevent or antagonize these effects and the degree of antagonism correlates with clinical efficacy. The prevention of […] ptosis in mice is used as a preliminary screen for possible antidepressant activity. The method used in this invention is as follows:
Male mice weighing 20 to 30 grams are used in test groups of five subjects. All compounds are dissolved or suspended with a suitable surfactant in distilled water and administered in volumes of 10 ml/kg of body weight. TBZ solution is made from the methanesulfonate salt and the concentration is adjusted to enable administration of 60 mg/kg of base by intraperitoneal (i.p.) injection.
The pretreatment time is measured from the time of dosing to observation. Therefore, when a 30-minute pretreat is utilized, drug and TBZ are given simultaneously. A control group received solvent and TBZ at intervals identical to drug group. For a primary screen, the drug is administered i.p. and a group size of five is utilized. Eight animals/group are used for a dose range.
The total score for each group of five in a primary screen will, therefore, be from 0 to 20 and these scores are used as indications of drug activity.
The vehicle control group score is used as a determinant of the validity of each test. […] The calculation of percent inhibition of ptosis is: [formula]

[2] = tested on: scopolamine induced memory deficit; experiment: Dark Avoidance Assay (scopolamine-induced memory deficit); format: in vivo; conditions: mice, 24 hours
Experimental: In this assay mice are tested for their ability to remember an unpleasant stimulus for a period of 24 hours. A mouse is placed in a chamber that contains a dark compartment; a strong incandescent light drives it to the dark compartment, where an electric shock is administered through metal plates on the floor. The animal is removed from the testing apparatus and tested again, 24 hours later, for the ability to remember the electric shock. If scopolamine, an anticholinergic that is known to cause memory impairment, is administered before an animal's initial exposure to the test chamber, the animal re-enters the dark compartment shortly after being placed in the test chamber 24 hours later.

[3] = tested on: 2-phenyl-1,4-benzoquinone-induced writhing; experiment: 2-phenyl-1,4-benzoquinone-induced writhing (PQW) test in mice; format: in vivo; conditions: Mus musculus, sc, read-out: PQW ED50
From the text: Compounds I of the present invention are useful as analgesic agents due to their ability to alleviate pain in mammals. […] Exptl. Biol. Med., 95, 729 (1957)] and in modified Haffner's analgesia.

[4] = tested on: sensitivity of mice to pressure stress (artery clip on tail); experiment: Modified Haffner's analgesia (artery clip on tail); format: in vivo, mice (male, Charles River, CD-1); conditions: Mus musculus, sc, read-out: Modified Haffner's Analgesia ED50
From the text: The latter assay is used to evaluate analgesic activity by measuring drug-induced changes in the sensitivty of mice to pressure stress by placing an artery clip (21/2 inches long) on their tail. The procedure used is a modification of the test developed by Haffner, Dtsch. Med. Wschr. 55, 731 (1929), and it is described below:
Male mice (Charles River, CD-1) from 18-30 grams are used for the test. An artery clip is applied to the root of the tail of a mouse (approximately 1/2 inch from the body) to induce pain. The animals quickly responds to this noxious stimuli by biting the clip or the location of the clip. This reaction time, the interval between stimulus onset and response, is recorded on 1/10 second increments by a stop watch.
For a time response, the screening dose (25 mg/kg) is administered subcutaneously (10 ml/kg) to the animal receiving food and water ad libitum before testing. Animals receiving the compound orally are fasted 18-24 hours before drug administration. Drug to be tested is prepared with distilled water and if insoluble, one drop of a surfactant is added.
Twenty-eight animals (seven/group) are administered the drug 15, 30, 45 and 60 minutes prior to testing.
The cut-off time (CO) is determined by taking the (x) average+3 standard (SD) deviation of the combined response latencies of the control mice in all time periods.
Any reaction time, in subsequent drug tests, which is greater than the CO (for the same time period) therefore exceeds 99% of normal Gaussian distribution and is called "positive response" indicative of analgesic activity. A time response indicates the period of greatest analgesic effect after dosing. The ED50 is determined at the peak time of drug activity. A minimum of three dose groups are used. ED50 's are calcualted using computer analysis.

[5] = tested on: supramaximal electroshock (extensor tonus); experiment: Anticonvulsant activity, supramaximal electroshock (SES) assay; format: in vivo; conditions: ip; male mouse, at peak activity time
Experimental: Compounds I of the present invention are also useful as anticonvulsant agents due to their anticonvulsant activity in mammals. Anticonvulsant activity is measured in the male mouse using the supramaximal electroshock (SES) assay described in Arch. Int. Pharmacodyn. 92:97-107, 1952. In this procedure groups of animals are used. Drugs are prepared using distilled water and, if insoluble, a surfactant is added. Control animals receive vehicle. Drugs are routinely administered intraperitoneally (i.p.). The dosage volume is 10 ml/kg. A primary screen is given a 30 minute pretreat. The animal's eyes are placed across the output terminals of an A.C. shocker that delivers 206 volts rms for 300 msec. Electrode paste coats the animals eyes at the point of contact with the terminals. […] Protection is expressed as normalized percent inhibition relative to vehicle control.
A time response is carried out using six animals/group. Animals are tested at 30, 60 and 120 minutes postdrug. Additional time periods are tested if indicated by previous tests. When the peak activity time has been determined, a dose response is initiated using 10 animals/group at that time period. The ED50 and 95% confidence interval are calculated by computer probit analysis.

[6] = mice, s.c., at peak time of drug activity

## Brc1ccc2c(c1)c1ccccc1n2Nc1ccncc1.O=C(O)/C=C\C(=O)O [3-Bromo-N-(4-pyridinyl)-9H-carbazol-9-amine maleate]
[1]; mice, p.o., TBZ 60 mg/kg i.p.
  ED50: 7.6 mg/kg
[2]; dose 0.31 mg/kg body weight
  % of animals with scopolamine induced memory deficit reversal: 33%
[3]; mice, s.c.
  ED50: 1.2 mg/kg
[4]; [6]
  ED50: 1.1 mg/kg

## O=C1CC2(CCCC2)CC(=O)N1CCCCN(c1ccncc1)n1c2ccccc2c2ccccc21 [8-[4-(9H-carbazol-9-yl-4-pyridinylamino)butyl]-8-azaspiro[4.5]decane-7,9-dione]
[2]; dose 5.0 mg/kg body weight
  % of animals with scopolamine induced memory deficit reversal: 60%

## CNC1=Nc2ccc(Cl)cc2C(c2ccccc2)=[N+]([O-])C1 [Chlordiazepoxide, reference compound]
[5]
  ED50: 8 mg/kg

## CNCCCN1c2ccccc2CCc2ccccc21 [Desipramine, reference compound]
[1]
  ED50: 2.3 mg/kg

## C=CCN(c1ccncc1)n1c2ccccc2c2ccccc21.O=C(O)/C=C\C(=O)O [N-(2-Propenyl)-N-(4-pyridinyl)-9H-carbazol-9-amine maleate]
[1]; mice, p.o., TBZ 60 mg/kg i.p.
  ED50: 3.7 mg/kg
[3]; mice, s.c.
  ED50: 1 mg/kg
[4]; [6]
  ED50: 1.2 mg/kg

## Cl.Fc1cnccc1Nn1c2ccccc2c2ccccc21 [N-(3-Fluoro-4-pyridinyl)-9H-carbazol-9-amine hydrochloride]
[3]; mice, s.c.
  ED50: 1.3 mg/kg
[4]; [6]
  ED50: 0.7 mg/kg

## CCCN(c1ccncc1F)n1c2ccccc2c2ccccc21 [N-(3-Fluoro-4-pyridinyl)-N-propyl-9H-carbazol-9-amine]
[2]; dose 1.25 mg/kg body weight
  % of animals with scopolamine induced memory deficit reversal: 27%

## O=C(O)/C=C\C(=O)O.c1ccc2c(c1)c1ccccc1n2Nc1ccncc1 [N-(4-Pyridinyl)-9H-carbazol-9-amine maleate]
[1]; mice, p.o., TBZ 60 mg/kg i.p.
  ED50: 2.3 mg/kg
[3]; mice, s.c.
  ED50: 0.5 mg/kg
[4]; [6]
  ED50: 0.4 mg/kg
[5]
  ED50: 23.4 mg/kg

## CCCCN(c1ccncc1)n1c2ccccc2c2ccccc21.Cl [N-(Butyl)-N-(4-pyridinyl)-9H-carbazol-9-amine hydrochloride]
[1]; mice, p.o., TBZ 60 mg/kg i.p.
  ED50: 5.2 mg/kg
[2]; dose 0.63 mg/kg body weight
  % of animals with scopolamine induced memory deficit reversal: 33%

## CCCN(c1ccncc1)n1c2ccccc2c2ccccc21.O=C(O)/C=C\C(=O)O [N-(Propyl)-N-(4-pyridinyl)-9H-carbazol-9-amine maleate]
[1]; mice, p.o., TBZ 60 mg/kg i.p.
  ED50: 1.5 mg/kg
[2]; dose 2.5 mg/kg body weight
  % of animals with scopolamine induced memory deficit reversal: 33%
[3]; mice, s.c.
  ED50: 4.3 mg/kg
[4]; [6]
  ED50: 9.8 mg/kg
[5]
  ED50: 16.9 mg/kg

## CCN(c1ccncc1)n1c2ccccc2c2ccccc21.O=C(O)/C=C\C(=O)O [N-Ethyl-N-(4-pyridinyl)-9H-carbazol-9-amine maleate]
[1]; mice, p.o., TBZ 60 mg/kg i.p.
  ED50: 2.2 mg/kg
[3]; mice, s.c.
  ED50: 1.1 mg/kg
[4]; [6]
  ED50: 4.3 mg/kg
[5]
  ED50: 6.4 mg/kg

## CN(c1ccncc1)n1c2ccccc2c2ccccc21.O=C(O)/C=C\C(=O)O [N-Methyl-N-(4-pyridinyl)-9H-carbazol-9-amine maleate]
[1]; mice, p.o., TBZ 60 mg/kg i.p.
  ED50: 1.5 mg/kg
[3]; mice, s.c.
  ED50: 0.1 mg/kg
[4]; [6]
  ED50: 0.19 mg/kg

## CC(C)=CCN1CCC2(C)c3cc(O)ccc3CC1C2C (stereo not shown) [Pentazocin, reference compound]
[3]
  ED50: 1.3 mg/kg
[4]
  ED50: 3.9 mg/kg

## CNC(=O)Oc1ccc2c(c1)[C@]1(C)CCN(C)[C@@H]1N2C [Physostigmine, reference compound]
[2]; dose 0.31 mg/kg body weight
  % of animals with scopolamine induced memory deficit reversal: 20%
